Data taken from patent US20250042875A1, “PESTICIDALLY ACTIVE PYRIDAZINONE COMPOUNDS” (SYNGENTA CROP PROTECTION AG, priority 2021, published 2025).

Experiments:
Type in all cases: in vivo
Diabrotica balteata = assay: Activity against Diabrotica balteata (corn root worm), maize sprouts, L2 larvae; details: 96 h, application rate 200 ppm, 4 days after infestation, read-out: control in at least one of the two categories (mortality or growth inhibition)
Experimental: Example B2: Activity Against Diabrotica Balteata (Corn Root Worm)
Maize sprouts placed onto an agar layer in 24-well microtiter plates were treated with aqueous test solutions prepared from 10′000 ppm DMSO stock solutions by spraying. After drying, the plates were infested with L2 larvae (6 to 10 per well). The samples were assessed for mortality and growth inhibition in comparison to untreated samples 4 days after infestation.

Myzus persicae [1] = assay: Activity against Myzus persicae (green peach aphid), intrinsic activity; details: 120 h, test rate 12 ppm, 5 days after infestation
Text: Example B6: Activity Against Myzus persicae (Green Peach Aphid). Intrinsic Activity
Test compounds prepared from 10′000 ppm DMSO stock solutions were applied by pipette into 24-well microtiter plates and mixed with sucrose solution. The plates were closed with a stretched Parafilm. A plastic stencil with 24 holes was placed onto the plate and infested pea seedlings were placed directly on the Parafilm. The infested plate was closed with a gel blotting paper and another plastic stencil and then turned upside down. The samples were assessed for mortality 5 days after infestation.

Chilo suppressalis = assay: Activity against Chilo suppressalis (striped rice stemborer), artificial diet, L2 larvae; details: 144 h, application rate 200 ppm, 6 days after infestation, read-out: control in at least one of the three categories (mortality, anti-feedant effect, or growth inhibition)
Experimental: Example B1: Activity Against Chilo suppressalis (Striped Rice Stemborer)
24-well microtiter plates with artificial diet were treated with aqueous test solutions prepared from 10′000 ppm DMSO stock solutions by pipetting. After drying, the plates were infested with L2 larvae (6-8 per well). The samples were assessed for mortality, anti-feeding effect, and growth inhibition in comparison to untreated samples 6 days after infestation. Control of Chilo suppressalis by a test sample is given when at least one of the categories mortality, anti-feedant effect, and growth inhibition is higher than the untreated sample.

Myzus persicae [2] = assay: Activity against Myzus persicae (green peach aphid), feeding/contact activity; details: 144 h, application rate 200 ppm, 6 days after infestation
Experimental: Example B5: Activity Against Myzus persicae (Green Peach Aphid). Feeding/Contact Activity
Sunflower leaf discs were placed onto agar in a 24-well microtiter plate and sprayed with aqueous test solutions prepared from 10′000 ppm DMSO stock solutions. After drying, the leaf discs were infested with an aphid population of mixed ages. The samples were assessed for mortality 6 days after infestation.

Spodoptera littoralis = assay: Activity against Spodoptera littoralis (Egyptian cotton leaf worm), cotton leaf discs, L1 larvae; details: foliar, 72 h, application rate 200 ppm, 3 days after infestation, read-out: control in at least one of the three categories (mortality, anti-feedant effect, or growth inhibition)
Experimental: Example B8: Activity Against Spodoptera littoralis (Egyptian Cotton Leaf Worm)
Cotton leaf discs were placed onto agar in 24-well microtiter plates and sprayed with aqueous test solutions prepared from 10′000 ppm DMSO stock solutions. After drying the leaf discs were infested with five L1 larvae. The samples were assessed for mortality, anti-feeding effect, and growth inhibition in comparison to untreated samples 3 days after infestation. Control of Spodoptera littoralis by a test sample is given when at least one of the categories mortality, anti-feedant effect, and growth inhibition is higher than the untreated sample.

Euschistus heros = assay: Activity against Euschistus heros (neotropical brown stink bug), soybean leaves, N2 nymphs; details: 120 h, application rate 200 ppm, 5 days after infestation, read-out: effect in at least one of the two categories (mortality or growth inhibition)
Experimental: Example B3: Activity Against Euschistus heros (Neotropical Brown Stink Bug)
Soybean leaves on agar in 24-well microtiter plates were sprayed with aqueous test solutions prepared from 10′000 ppm DMSO stock solutions. After drying the leaves were infested with N2 nymphs. The samples were assessed for mortality and growth inhibition in comparison to untreated samples 5 days after infestation.

Plutella xylostella = assay: Activity against Plutella xylostella (diamond back moth), artificial diet, eggs; details: 192 h, application rate 200 ppm, 8 days after infestation, read-out: control in at least one of the two categories (mortality or growth inhibition)
Experimental: Example B7: Activity Against Plutella xylostella (Diamond Back Moth)
24-well microtiter plates with artificial diet were treated with aqueous test solutions prepared from 10′000 ppm DMSO stock solutions by pipetting. After drying, Plutella eggs were pipetted through a plastic stencil onto a gel blotting paper and the plate was closed with it. The samples were assessed for mortality and growth inhibition in comparison to untreated samples 8 days after infestation.

C[C@H](NC(=O)c1cc(C(F)(F)F)cc(C(F)(F)F)c1)c1ncnn1-c1ccc(=O)n(C)n1 [P1, N-[(1S)-1-[2-(1-methyl-6-oxo-pyridazin-3-yl)-1,2,4-triazol-3-yl]ethyl]-3,5-bis(trifluoromethyl)benzamide]
≥ 80%: percent control (mortality or growth inhibition) at 200 ppm (Diabrotica balteata) | mortality at 12 ppm (Myzus persicae [1]) | percent control (mortality, anti-feedant effect or growth inhibition) at 200 ppm (Chilo suppressalis) | mortality at 200 ppm (Myzus persicae [2]) | percent control (mortality, anti-feedant effect or growth inhibition) at 200 ppm (Spodoptera littoralis) | percent effect (mortality or growth inhibition) at 200 ppm (Euschistus heros) | percent control (mortality or growth inhibition) at 200 ppm (Plutella xylostella)

CC(NC(=O)c1cc(Cl)cc(C(F)(F)F)c1)c1nccnc1-c1ccc(=O)n(C)n1 (centres unmarked) [P7, 3-chloro-N-[1-[3-(1-methyl-6-oxo-pyridazin-3-yl)pyrazin-2-yl]ethyl]-5-(trifluoromethyl)benzamide]
≥ 80%: percent control (mortality or growth inhibition) at 200 ppm (Diabrotica balteata) | mortality at 12 ppm (Myzus persicae [1]) | percent control (mortality, anti-feedant effect or growth inhibition) at 200 ppm (Chilo suppressalis) | mortality at 200 ppm (Myzus persicae [2]) | percent control (mortality, anti-feedant effect or growth inhibition) at 200 ppm (Spodoptera littoralis) | percent control (mortality or growth inhibition) at 200 ppm (Plutella xylostella)

CC(NC(=O)c1cc(Br)cc(C(F)(F)F)c1)c1nccnc1-c1ccc(=O)n(C)n1 (centres unmarked) [P10, 3-bromo-N-[1-[3-(1-methyl-6-oxo-pyridazin-3-yl)pyrazin-2-yl]ethyl]-5-(trifluoromethyl)benzamide]
≥ 80%: percent control (mortality or growth inhibition) at 200 ppm (Diabrotica balteata) | mortality at 12 ppm (Myzus persicae [1]) | percent control (mortality, anti-feedant effect or growth inhibition) at 200 ppm (Chilo suppressalis) | mortality at 200 ppm (Myzus persicae [2]) | percent control (mortality, anti-feedant effect or growth inhibition) at 200 ppm (Spodoptera littoralis) | percent control (mortality or growth inhibition) at 200 ppm (Plutella xylostella)

CCn1nc(-n2ncnc2[C@H](C)NC(=O)c2cc(Cl)cc(S(=O)(=O)C(F)(F)F)c2)ccc1=O [P17, 3-chloro-N-[(1S)-1-[2-(1-ethyl-6-oxo-pyridazin-3-yl)-1,2,4-triazol-3-yl]ethyl]-5-(trifluoromethylsulfonyl)benzamide]
≥ 80%: percent control (mortality or growth inhibition) at 200 ppm (Diabrotica balteata) | mortality at 12 ppm (Myzus persicae [1]) | percent control (mortality, anti-feedant effect or growth inhibition) at 200 ppm (Chilo suppressalis) | mortality at 200 ppm (Myzus persicae [2]) | percent control (mortality, anti-feedant effect or growth inhibition) at 200 ppm (Spodoptera littoralis) | percent control (mortality or growth inhibition) at 200 ppm (Plutella xylostella)

C[C@@H](c1ncnn1C1=NN(C)C(=O)CC1)N(C)C(=O)c1cc(Cl)cc(S(=O)(=O)C(F)(F)F)c1 [P22, 3-chloro-N-methyl-N-[(1S)-1-[2-(1-methyl-6-oxo-4,5-dihydropyridazin-3-yl)-1,2,4-triazol-3-yl]ethyl]-5-(trifluoromethylsulfonyl) benzamide]
≥ 80%: percent control (mortality or growth inhibition) at 200 ppm (Diabrotica balteata) | mortality at 12 ppm (Myzus persicae [1]) | percent control (mortality, anti-feedant effect or growth inhibition) at 200 ppm (Chilo suppressalis) | mortality at 200 ppm (Myzus persicae [2]) | percent control (mortality, anti-feedant effect or growth inhibition) at 200 ppm (Spodoptera littoralis) | percent control (mortality or growth inhibition) at 200 ppm (Plutella xylostella)

CC(NC(=O)c1cc(C(F)(F)F)cc(C2(C#N)CC2)c1)c1nccnc1-c1ccc(=O)n(C)n1 (centres unmarked) [P24, 3-(1-cyanocyclopropyl)-N-[1-[3-(1-methyl-6-oxo-pyridazin-3-yl)pyrazin-2-yl]ethyl]-5-(trifluoromethyl) benzamide]
≥ 80%: mortality at 12 ppm (Myzus persicae [1]) | percent control (mortality, anti-feedant effect or growth inhibition) at 200 ppm (Chilo suppressalis) | mortality at 200 ppm (Myzus persicae [2]) | percent control (mortality, anti-feedant effect or growth inhibition) at 200 ppm (Spodoptera littoralis) | percent control (mortality or growth inhibition) at 200 ppm (Plutella xylostella)

CC(NC(=O)c1cc(Cl)nc(C2(C#N)CC2)c1)c1nccnc1-c1ccc(=O)n(C)n1 (centres unmarked) [P34, 2-chloro-6-(1-cyanocyclopropyl)-N-[1-[3-(1-methyl-6-oxo-pyridazin-3-yl)pyrazin-2-yl]ethyl]pyridine-4-carboxamide]
≥ 80%: mortality at 12 ppm (Myzus persicae [1]) | percent control (mortality, anti-feedant effect or growth inhibition) at 200 ppm (Chilo suppressalis) | mortality at 200 ppm (Myzus persicae [2]) | percent control (mortality, anti-feedant effect or growth inhibition) at 200 ppm (Spodoptera littoralis) | percent control (mortality or growth inhibition) at 200 ppm (Plutella xylostella)

C[C@H](NC(=O)c1cc(Cl)nc(C2(C#N)CC2)c1)c1ncnn1-c1ccc(=O)n(C)n1 [P35, 2-chloro-6-(1-cyanocyclopropyl)-N-[(1S)-1-[2-(1-methyl-6-oxo-pyridazin-3-yl)-1,2,4-triazol-3-yl]ethyl]pyridine-4-carboxamide]
≥ 80%: mortality at 12 ppm (Myzus persicae [1]) | percent control (mortality, anti-feedant effect or growth inhibition) at 200 ppm (Chilo suppressalis) | mortality at 200 ppm (Myzus persicae [2]) | percent effect (mortality or growth inhibition) at 200 ppm (Euschistus heros) | percent control (mortality or growth inhibition) at 200 ppm (Plutella xylostella)

C[C@H](NC(=O)c1cc(I)cc(C(F)(F)F)c1)c1ncnn1-c1ccc(=O)n(C)n1 [P36, 3-iodo-N-[(1S)-1-[2-(1-methyl-6-oxo-pyridazin-3-yl)-1,2,4-triazol-3-yl]ethyl]-5-(trifluoromethyl)benzamide]
≥ 80%: percent control (mortality or growth inhibition) at 200 ppm (Diabrotica balteata) | mortality at 12 ppm (Myzus persicae [1]) | percent control (mortality, anti-feedant effect or growth inhibition) at 200 ppm (Chilo suppressalis) | percent control (mortality, anti-feedant effect or growth inhibition) at 200 ppm (Spodoptera littoralis) | percent effect (mortality or growth inhibition) at 200 ppm (Euschistus heros) | percent control (mortality or growth inhibition) at 200 ppm (Plutella xylostella)

CC(NC(=O)c1cc(OC(F)F)cc(C2(C#N)CC2)c1)c1nccnc1-c1ccc(=O)n(C)n1 (centres unmarked) [P44, 3-(1-cyanocyclopropyl)-5-(difluoromethoxy)-N-[1-[3-(1-methyl-6-oxo-pyridazin-3-yl)pyrazin-2-yl]ethyl]benzamide]
≥ 80%: mortality at 12 ppm (Myzus persicae [1]) | percent control (mortality, anti-feedant effect or growth inhibition) at 200 ppm (Chilo suppressalis) | mortality at 200 ppm (Myzus persicae [2]) | percent control (mortality, anti-feedant effect or growth inhibition) at 200 ppm (Spodoptera littoralis) | percent effect (mortality or growth inhibition) at 200 ppm (Euschistus heros) | percent control (mortality or growth inhibition) at 200 ppm (Plutella xylostella)

C[C@H](NC(=O)c1cc(OC(F)F)cc(C2(C#N)CC2)c1)c1ncnn1-c1ccc(=O)n(C)n1 [P45, 3-(1-cyanocyclopropyl)-5-(difluoromethoxy)-N-[(1S)-1-[2-(1-methyl-6-oxo-pyridazin-3-yl)-1,2,4-triazol-3-yl]ethyl]benzamide]
≥ 80%: mortality at 12 ppm (Myzus persicae [1]) | percent control (mortality, anti-feedant effect or growth inhibition) at 200 ppm (Chilo suppressalis) | mortality at 200 ppm (Myzus persicae [2]) | percent effect (mortality or growth inhibition) at 200 ppm (Euschistus heros)

CC(NC(=O)c1cc(Br)cc(C(F)(F)F)c1)c1nccnc1-c1cn(CC(F)F)c(=O)cn1 (centres unmarked) [P49, 3-bromo-N-[1-[3-[4-(2,2-difluoroethyl)-5-oxo-pyrazin-2-yl]pyrazin-2-yl]ethyl]-5-(trifluoromethyl)benzamide]
≥ 80%: percent control (mortality or growth inhibition) at 200 ppm (Diabrotica balteata) | mortality at 12 ppm (Myzus persicae [1]) | percent control (mortality, anti-feedant effect or growth inhibition) at 200 ppm (Chilo suppressalis) | mortality at 200 ppm (Myzus persicae [2]) | percent control (mortality, anti-feedant effect or growth inhibition) at 200 ppm (Spodoptera littoralis) | percent control (mortality or growth inhibition) at 200 ppm (Plutella xylostella)
